# Test results: US20040122080A1, “Synergist combinations of retinoid receptor ligands and selected cytotoxic agents for treatment of cancer” (priority 2004, published 2004)
# Key:
# [1] = system: MCF7 cells; test: Anchorage-dependent colony formation assay; type: cell-based, human; details: for colony formation and morphology: 6 days exposure, crystal violet
# Protocol: (§1) To determine effects of RAR agonists on anchorage-dependent colony size, number and morphology, MCF7 cells were plated in 6 well plates (500 cells/well) in DMEM supplemented with 10% FBS and grown for 5 days. The medium was then removed and the compounds were added to the medium supplemented with 5% of charcoal stripped FBS (HyClone). The compound containing medium was renewed after 3 days and cultures were allowed to grow an additional 3 days. After 6 days exposure to compounds, colonies were stained with crystal violet. Colonies were counted to quantify colony area and number and photographed under light microscopy to assess effects on colony size and morphology. The results presented are representative of two independent experiments. Immunoblotting MCF-7 cellular lysates were prepared for Western blotting in accordance with procedures described by Sambrook et al. (MOLECULAR CLONING: A LABORATORY MANUAL, 2nd Ed.; Cold Spring Harbor Laboratory Press, Cold Spring Harbor, N. Y. (1989)). Cell lysates were prepared by adding 200 μl of lysis buffer (Tris-HCl, pH 6.8, 20 mM, EDTA 1 mM, NP-40 0.5%) containing a protease inhibitor cocktail (Roche) to each well of 6 well plates. The lysates were then cleared by centrifugation at 10,000 rpm, 4EC for 5 minutes and supernatants were adjusted with Laemmli sample buffer and processed by 10 or 15% SDS-polyacrylamide gel electrophoresis (PAGE), followed by transfer to nitrocellulose membranes (Biorad). Membranes were processed by standard methods and incubated with primary antibodies for 1 hour at room temperature or overnight at 4EC. Bound antibody was visualized using a goat anti-IgG secondary antibody conjugated to HRP and a chemiluminescent detection system (ECL, Amersham Pharmacia Biotech).
# [2] = system: MCF7, OVCAR3 and SQCC-Y1 cells; test: Growth inhibition, statements across the three human tumor cell lines; type: cell-based; details: co-treatment with paclitaxel, Table 1
# Protocol: (§2) Cellular proliferation was quantified using [^3H] thymidine incorporation. Cells were plated in 96 well plates in media containing 10% fetal bovine serum (FBS) and allowed to adhere overnight. Cell medium was removed the following day and the indicated compounds were added to fresh medium supplemented with 10% of charcoal stripped FBS (HyClone). Compound-containing medium was renewed after 3 days exposure. After 6 day treatment, 4 μCi/ml of [^3H]thymidine (NEN Life Science Products) were added to each well for 2 to 4 hours. The cells were then trypsinized and harvested on GF/B glass fiber filters. [^3H]thymidine incorporated into the DNA was measured in a scintillation Topcount counter (Packard). The results were expressed as percent inhibition compared to the DMSO vehicle.
# [3] = system: Jun N-terminal Kinase (JNK); test: Jun N-terminal Kinase assay (immunoprecipitated JNK from MCF7 cells); type: cell-based, human
# Protocol: Activity of JNK was measured in accordance with procedures described by Coso et al. (Cell 1995 81:1137-1146) with minor modifications. MCF-7 cells were plated in 6-well plates in DMEM supplemented with 10% FBS and allowed to adhere overnight. The next day, the cells were switched to DMEM supplemented with 0.5% charcoal-stripped FBS (HyClone) and 100 nM of indicated retinoids or 0.1% DMSO was added to the cells for 24 hours before an additional 2 to 3 hours incubation in the presence of 1 μM of paclitaxel. Cell lysates was prepared from each well as described and cleared by centrifugation. JNK was immunoprecipitated from each lysate by incubating overnight at 4° C. with 1 μg of anti-hJNK (Pharmingen) and 25 μl of protein G agarose beads (Gibco-BRL) previously washed with the lysis buffer. Immune complexes were pelleted by centrifugation 2 minutes at 10,000 rpm 4° C. and washed 3 times with PBS containing 1% NP40 and 2 mM of Na3VO4, once with 100 mM Tris-HCl pH7.5, 0.5 mM LiCl and once with Kinase Reaction Buffer (KRB: 12.5 mM MOPS pH7.5, 12.5 mM β-glycerolphosphate, 7.5 mM MgCl2, 0.5 mM EGTA, 0.5 mM NaF, 0.5 mM Na3VO4). […] The kinase reaction was terminated by adding 10 μl of Laemmli sample buffer. resolved by 10% SDS-PAGE and phosphorylated GST-c-Jun visualized by autoradiography and quantified by densitometry. […]
# [4] = system: AP1 transcriptional activity; test: AP1 reporter assay, MCF7 cells with (AP1)5x-tk-Luc; type: cell-based, human
# Protocol: AP1 transcriptional activity was assessed in MCF7 cells stably transfected with (AP1)5x-tk-Luc reporter gene (IGBMC, France). (AP1)5x corresponds to the collagenase gene AP1 response element repeated 5 times in tandem, tk is the minimal thymidine kinase promoter, and Luc the coding sequence of the luciferase gene. MCF7 cells were plated in 12-well plates at a density of 400,000 cells per well in DMEM supplemented with 10% FBS and allowed to adhere overnight. The next day, the medium was removed, the cells were washed with PBS and supplemented with DMEM medium containing 0.5% of charcoal stripped FBS (HyClone). […] The luciferase activity was measured by using Luc-lite system from Packard according to manufacturer's recommendations. Results are expressed as percent activity compared to PMA (10 nM) which was assigned as 100% activity. The data presented are the mean ± sem (standard error of the mean)of 3 independent experiments.
# [5] = system: OVCAR3; test: Mitogenic assay, growth inhibition ([3H]-thymidine incorporation), retinoid/paclitaxel co-treatment; type: cell-based, human
# Protocol: as §2
# [6] = system: MCF7; test: as above; type: cell-based, human
# Protocol: as §2
# [7] = system: SQCC-Y1; test: as above; type: cell-based, human
# Protocol: as §2
# [8] = system: tubulin; test: Tubulin polymerization assay in MCF7 cells; type: cell-based, human; details: single agent, Western blotting of soluble and polymerized tubulin
# Protocol: The effects of retinoid and paclitaxel exposure on free and polymerized tubulin levels were determined in accordance with procedures described by Giannakakou et al. (J. Biol. Chem. 1997 272:17118-17125). MCF7 cells were plated in 6 well plates in DMEM supplemented with 10% FBS and allowed to adhere overnight. Cell medium was removed the following day and the indicated compounds were added to fresh medium supplemented with 5% of charcoal stripped FBS (HyClone). The cells were grown for 3 days in the presence of the retinoids before paclitaxel was added for 1 hour. Soluble and polymerized tubulin were extracted and respective levels were assessed by Western blotting as described above using anti-(tubulin antibodies (n=2).
# [9] = system: Bcl-2; test: Bcl-2 expression and phosphorylation (immunoblotting); type: cell-based, human; details: MCF7; single agent
# Protocol: as §1, with “The lysates were then cleared by centrifugation at 10,000 rpm, 4EC for 5 minutes and supernatants were adjusted with Laemmli sample buffer and processed by 10 or 15% SDS-polyacrylamide gel electrophoresis (PAGE), followed by transfer to nitrocellulose membranes (Biorad). Membranes were processed by standard methods and incubated with primary antibodies for 1 hour at room temperature or overnight at 4EC. Bound antibody was visualized using a goat anti-IgG secondary antibody conjugated to HRP and a chemiluminescent detection system (ECL, Amersham Pharmacia Biotech).” left out
# [10] = Homo sapiens, 144 h, maximal inhibition, paclitaxel co-treated with the labelled retinoid (none = paclitaxel alone), read-out: Efficacy (percent inhibition compared with DMSO)
structure (smiles),measurement,setting,value
"CC1=C(/C=C/C(C)=C/C=C/C(C)=C/C(=O)O)C(C)(C)CCC1 [ATRA, all trans retinoic acid]",colony formation and morphology,[1]; MCF7,impaired colony formation
same,apoptosis in treated colonies,[1]; MCF7 colonies,high level of apoptosis
"Cc1cccc(C2=CC(=O)C(C)(C)c3cc4ccc(-c5ccc(C(=O)O)cc5)cc4cc32)c1 [Formula II, 4-(5,6-dihydro-5,5-dimethyl-6-oxo-8-(3-methyl-phenyl)-anthracen-2-yl)-benzoic acid]",effect on the effective dose of paclitaxel required to induce cytotoxicity,[2],lowered the effective dose of paclitaxel required to induce cytotoxicity
same,effect on paclitaxel-induced JNK activity,[3]; combination with paclitaxel,did not modify paclitaxel-induced JNK activity
same,colony formation and morphology,[1]; MCF7,strongly impaired colony formation
same,sensitivity of the cells to paclitaxel,"[1]; MCF7, pre-treatment for three days",significantly enhanced the sensitivity of the cells to paclitaxel
same,effect on paclitaxel/PMA-induced AP1 activity,[4]; combination with paclitaxel,did enhance the effects of paclitaxel/PMA or AP1 activity
CC(=O)O[C@H]1C(=O)[C@@]2(C)[C@H]([C@H](OC(=O)c3ccccc3)[C@]3(O)C[C@H](OC(=O)[C@H](O)[C@@H](NC(=O)c4ccccc4)c4ccccc4)C(C)=C1C3(C)C)[C@]1(OC(C)=O)CO[C@@H]1C[C@@H]2O [paclitaxel],IC50,"[5]; Homo sapiens, OVCAR-3, 144 h, 6 day treatment, paclitaxel co-treated with the labelled retinoid (none = paclitaxel alone), mean of 2 to 5 experiments",0.6 nM
same,Emax,"[5]; Homo sapiens, OVCAR-3, 144 h, maximal inhibition, paclitaxel co-treated with the labelled retinoid (none = paclitaxel alone), read-out: Efficacy (percent inhibition compared with DMSO)",99%
same,Emax,[6]; [10],100%
same,IC50,"[7]; Homo sapiens, 144 h, 6 day treatment, paclitaxel co-treated with the labelled retinoid (none = paclitaxel alone), mean of 2 to 5 experiments",0.16 nM
same,Emax,[7]; [10],100%
same,polymerization of tubulin,[8],dose-dependent polymerization of tubulin
same,increase in JNK activity,"[3]; single agent, paclitaxel 1 μM 2 to 3 hours, retinoids 100 nM 24 hours",2.5 fold
same,phosphorylation of Bcl-2,[9],dose-dependent increase
same,enhancement of PMA-induced AP1 transcriptional activity,"[4]; single agent, paclitaxel 1 μM, PMA 10 nM",20%
CC(C)(C)/C=C\C1=CCC(C)(C)c2ccc(/C=C/c3ccc(C(=O)O)cc3)cc21 [Formula Ia],decrease of the IC50 of paclitaxel in the presence of the retinoid,[5],15 fold
same,decrease of the IC50 of paclitaxel in the presence of the retinoid,[6],8 fold
same,decrease of the IC50 of paclitaxel in the presence of the retinoid,[7],32 fold
same,effect on the effective dose of paclitaxel required to induce cytotoxicity,[2],dramatically lowered the effective dose of paclitaxel required to induce cytotoxicity
same,colony formation and morphology,[1]; MCF7,dramatic change in the morphology of both the colonies and the cells
same,inhibition at 0.05 µM,"[4]; Homo sapiens, MCF7, at 50 nM, PMA 10 nM, 6 hours, read-out: inhibition of PMA-induced AP1 reporter activity, maximum",30 to 45%
